From patent publication US20170215422A1, “NOVEL CYCLIC DEPSIPEPTIDE DERIVATIVES AND HARMFUL ORGANISM CONTROL AGENTS COMPRISING THE SAME” (priority 2012, published 2017)

How the values were obtained:
[1] = system: Musca domestica; test: Control effect against Musca domestica adults (sucrose solution on swab); assay type: in vivo; conditions: 50 ppm in 40% sucrose solution, 4 days
Method: A chemical solution of the compound according to the present invention that had been adjusted with a 40% sucrose solution to a concentration of 50 ppm was adsorbed on a swab, and the swab was placed in a vial. Two adults of Musca domestica grown in a room were released, followed by standing in a room at a room temperature of 25° C. […] When two insects were in a dead or anguished state, the test compound was determined to be effective.

[2] = system: adult of Ascaridiidae galli; test: Anthelminticidal effect against adult of Ascaridiidae galli (in-vitro test); conditions: 50 ppm; six adults per culture solution; 41° C.; 24 hr
Method: The activity of compounds was evaluated based on a change in motility of adults of A. galli. Compounds of the present invention were dissolved in dimethyl sulfoxide, and the solution was added to a culture solution of A. galli that had been dissolved in a Ringer's solution to a compound concentration of 50 ppm. Six adults of A. galli were placed per culture solution, followed by culturing at 41° C.

[3] = system: egg of drug-resistant Tetranychus uruticae; test: Ovicidal effect against egg of drug-resistant Tetranychus uruticae; assay type: in vivo; conditions: for insecticidal effect against a strain having a lowered susceptibility to acequinocyl: summary of test results in words
Method: <Miticidal Effect Against Two-Spotted Spider Mite (Drug-Resistant Strain)>
(§1) A leaf disk having a diameter of 2.0 cm was cut out from a kidney bean grown in a pot. The leaf disk was inoculated with seven female adult of drug-resistant Tetranychus uruticae, followed by laying in a thermostatic chamber (25° C.). After the elapse of 24 hr, female adults were removed from the leaf disk. The foliage was treated with a chemical solution adjusted to a 50% aqueous acetone solution (0.05% Tween 20 added) containing a compound of the present invention at a predetermined concentration. The foliage was then air-dried and was allowed to stand in a thermostatic chamber (light period 16 hr-dark period 8 hr) (25° C.). Seven days after the chemical solution treatment, the number of remaining eggs and the number of dead mites were counted, and the ovicidal/miticidal rate was calculated by the following equation.
(§2) Ovicidal/miticidal rate (%)={(number of remaining eggs+number of dead mites)/(number of remaining eggs+number of dead mites+number of survived insects)}×100

[4] = system: egg of Tetranychus uruticae (susceptible strain); test: Ovicidal effect against egg of Tetranychus uruticae (susceptible strain); assay type: in vivo; conditions: foliage treatment of 10 ppm; control agent
Method: <Miticidal Effect Against Two-Spotted Spider Mite (Susceptible Strain)>
as §1, with “of” for “of drug-resistant”
as §2

Row | SMILES | insecticidal activity (two adults dead or anguished = effective) [1] | also measured
1 | CCCCCC1OC(=O)C(CC(C)C)N(C)C(=O)C(CCCCC)OC(=O)C(CC(C)C)N(C)C(=O)C(CCCCC)OC(=O)C(CC(C)C)N(C)C(=O)C(CCCCC)OC(=O)CN(C)C1=O (centres unmarked) [Compound 33] | two insects were brought to a dead or anguished state | 
2 | CCCCCC1OC(=O)C(C)N(C)C(=O)C(CCCCC)OC(=O)C(C)N(C)C(=O)C(CCCCC)OC(=O)C(C)N(C)C(=O)C(CCCCC)OC(=O)CN(C)C1=O (centres unmarked) [Compound 1] | two insects were brought to a dead or anguished state | anthelminticidal activity (adults that stopped automatic motility) [2]: four insects that had stopped automatic motility
3 | CCCCCCC1OC(=O)CN(C)C(=O)C(CCCCC)OC(=O)C(C)N(C)C(=O)C(CCCCC)OC(=O)C(C)N(C)C(=O)C(CCCCC)OC(=O)C(C)N(C)C1=O [Compound 2, Cycro(-N-Me-L-Gly-(R)-Oct-N-Me-L-Ala-(R)Hep-N-Me-L-Ala-(R)-Hep-N-Me-L-Ala-(R)-Hep-)] |  | anthelminticidal activity (adults that stopped automatic motility) [2]: four insects that had stopped automatic motility
4 | CCCCCC1OC(=O)C(C)N(C)C(=O)C(CCCCC)OC(=O)C(CC)N(C)C(=O)C(CCCCC)OC(=O)C(C)N(C)C(=O)C(CCCCC)OC(=O)C(C)N(C)C1=O (centres unmarked) [Compound 10] |  | anthelminticidal activity (adults that stopped automatic motility) [2]: four insects that had stopped automatic motility
5 | CCCCCC1OC(=O)C(C)N(C)C(=O)C(CCCCC)OC(=O)C(CCC)N(C)C(=O)C(CCCCC)OC(=O)C(C)N(C)C(=O)C(CCCCC)OC(=O)C(C)N(C)C1=O (centres unmarked) [Compound 19] |  | anthelminticidal activity (adults that stopped automatic motility) [2]: four insects that had stopped automatic motility
6 | CCCCCCCCC1OC(=O)CN(C)C(=O)C(CCCCC)OC(=O)C(C)N(C)C(=O)C(CCCCC)OC(=O)C(C)N(C)C(=O)C(CCCCC)OC(=O)C(C)N(C)C1=O (centres unmarked) [Compound 4] | two insects were brought to a dead or anguished state | 
7 | CCCCC[C@H]1OC(=O)CN(C)C(=O)[C@@H](CCCCC)OC(=O)[C@H](CC(C)C)N(C)C(=O)[C@@H](CCCCC)OC(=O)[C@H](CC(C)C)N(C)C(=O)[C@@H](CCCCC)OC(=O)CN(C)C1=O [Compound 47, Cycro(-N-Me-L-Gly-(R)-Hep-N-Me-L-Gly-(R)-Hep-N-Me-L-Leu-(R)-Hep-N-Me-L-Leu-(R)-Hep-)] | two insects were brought to a dead or anguished state | 
8 | CCCCCCCCC1OC(=O)C(CC)N(C)C(=O)C(CCCCC)OC(=O)C(C)N(C)C(=O)C(CCCCC)OC(=O)C(C)N(C)C(=O)C(CCCCC)OC(=O)C(C)N(C)C1=O (centres unmarked) [Compound 13] | two insects were brought to a dead or anguished state | 
9 | CCCCCC1OC(=O)C(CC(C)C)N(C)C(=O)C(CCCCC)OC(=O)C(CCC)N(C)C(=O)C(CCCCC)OC(=O)C(CCC)N(C)C(=O)C(CCCCC)OC(=O)CN(C)C1=O (centres unmarked) [Compound 60] | two insects were brought to a dead or anguished state | 
10 | CCCCCC1OC(=O)C(CCC)N(C)C(=O)C(CCCCC)OC(=O)C(CC(C)C)N(C)C(=O)C(CCCCC)OC(=O)C(CC(C)C)N(C)C(=O)C(CCCCC)OC(=O)C(CCC)N(C)C1=O (centres unmarked) [Compound 53] |  | insecticidal effect against a strain having a lowered susceptibility to acequinocyl [3]: high insecticidal effect
11 | CCCCCCCCCC1OC(=O)C(C)N(C)C(=O)C(CCCCC)OC(=O)C(C)N(C)C(=O)C(CCCCC)OC(=O)C(C)N(C)C(=O)C(CCCCC)OC(=O)C(C)N(C)C1=O (centres unmarked) [Compound 9] | two insects were brought to a dead or anguished state | 
12 | CCCCCCCC1OC(=O)C(CC(C)C)N(C)C(=O)C(CCCCC)OC(=O)CN(C)C(=O)C(CCCCC)OC(=O)CN(C)C(=O)C(CCCCC)OC(=O)CN(C)C1=O (centres unmarked) [Compound 32] | two insects were brought to a dead or anguished state | 
13 | CCCCCCCCCCCCC1=C(OC(C)=O)C(=O)c2ccccc2C1=O [acequinocyl, reference compound] |  | ovicidal/miticidal rate ([3]; foliage treatment of 10 ppm, eggs, drug-resistant strain, 7 days): 11%; ovicial/miticidal rate against egg of Tetranychus uruticae (susceptible strain) [4]: 71%
14 | CCCCCCCCC1OC(=O)C(CCC)N(C)C(=O)C(CCCCC)OC(=O)C(C)N(C)C(=O)C(CCCCC)OC(=O)C(C)N(C)C(=O)C(CCCCC)OC(=O)C(C)N(C)C1=O (centres unmarked) [Compound 22] | two insects were brought to a dead or anguished state | 
15 | CCCCCCCC1OC(=O)C(CC)N(C)C(=O)C(CCCCC)OC(=O)C(C)N(C)C(=O)C(CCCCC)OC(=O)C(C)N(C)C(=O)C(CCCCC)OC(=O)C(C)N(C)C1=O (centres unmarked) [Compound 12] | two insects were brought to a dead or anguished state | 
16 | CCCCCC1OC(=O)C(CC(C)C)N(C)C(=O)C(CCCCC)OC(=O)C(CC(C)C)N(C)C(=O)C(CCCCC)OC(=O)C(CC(C)C)N(C)C(=O)C(CCCCC)OC(=O)C(CCC)N(C)C1=O (centres unmarked) [Compound 56] |  | insecticidal effect against a strain having a lowered susceptibility to acequinocyl [3]: high insecticidal effect
17 | CCCCCCC1OC(=O)C(CC)N(C)C(=O)C(CCCCC)OC(=O)C(C)N(C)C(=O)C(CCCCC)OC(=O)C(C)N(C)C(=O)C(CCCCC)OC(=O)C(C)N(C)C1=O (centres unmarked) [Compound 11] | two insects were brought to a dead or anguished state | 
18 | CCCCCC1OC(=O)C(C)N(C)C(=O)C(CCCCC)OC(=O)C(C)N(C)C(=O)C(CC(C)C)OC(=O)C(C)N(C)C(=O)C(CCCCC)OC(=O)C(C)N(C)C1=O (centres unmarked) [Compound 61] |  | anthelminticidal activity (adults that stopped automatic motility) [2]: four insects that had stopped automatic motility
19 | CCCCCCCCC1OC(=O)C(C)N(C)C(=O)C(CCCCC)OC(=O)C(C)N(C)C(=O)C(CCCCC)OC(=O)C(C)N(C)C(=O)C(CCCCC)OC(=O)C(C)N(C)C1=O (centres unmarked) [Compound 8] | two insects were brought to a dead or anguished state | 
20 | CCCCCC1OC(=O)C(C)N(C)C(=O)C(CCCC)OC(=O)C(C)N(C)C(=O)C(CCCCC)OC(=O)C(C)N(C)C(=O)C(CCCCC)OC(=O)C(C)N(C)C1=O (centres unmarked) [Compound 6] |  | anthelminticidal activity (adults that stopped automatic motility) [2]: four insects that had stopped automatic motility
21 | CCCCCCCCCC1OC(=O)C(CCC)N(C)C(=O)C(CCCCC)OC(=O)C(C)N(C)C(=O)C(CCCCC)OC(=O)C(C)N(C)C(=O)C(CCCCC)OC(=O)C(C)N(C)C1=O (centres unmarked) [Compound 23] | two insects were brought to a dead or anguished state | 
22 | CCCCCCCC[C@H]1OC(=O)[C@H](CC(C)C)N(C)C(=O)[C@@H](CCCCC)OC(=O)[C@H](C)N(C)C(=O)[C@H](CCCCC)OC(=O)[C@H](C)N(C)C(=O)[C@@H](CCCCC)OC(=O)[C@H](C)N(C)C1=O [Compound 29] | two insects were brought to a dead or anguished state | 
23 | CCCCCCCC1OC(=O)C(CCC)N(C)C(=O)C(CCCCC)OC(=O)C(C)N(C)C(=O)C(CCCCC)OC(=O)C(C)N(C)C(=O)C(CCCCC)OC(=O)C(C)N(C)C1=O (centres unmarked) [Compound 21] | two insects were brought to a dead or anguished state | 
24 | CCCCCC1OC(=O)C(CCC)N(C)C(=O)C(CCCCC)OC(=O)C(CCC)N(C)C(=O)C(CCCCC)OC(=O)C(CC(C)C)N(C)C(=O)C(CCCCC)OC(=O)C(CCC)N(C)C1=O (centres unmarked) [Compound 55] |  | insecticidal effect against a strain having a lowered susceptibility to acequinocyl [3]: high insecticidal effect
25 | CCCCCCCC1OC(=O)C(CCCC)N(C)C(=O)C(CCCCC)OC(=O)C(C)N(C)C(=O)C(CCCCC)OC(=O)C(C)N(C)C(=O)C(CCCCC)OC(=O)C(C)N(C)C1=O [Compound 16, Cycro(-N-Me-L-Nle (R)-Nna-N-Me-L-Ala-(R)-Hep-N-Me-L-Ala-(R)-Hep-N-Me-L-Ala-(R)-Hep-)] | two insects were brought to a dead or anguished state | 
26 | CCCCCCC[C@H]1OC(=O)[C@H](CC(C)C)N(C)C(=O)[C@@H](CCCCC)OC(=O)[C@H](C)N(C)C(=O)[C@H](CCCCC)OC(=O)[C@H](C)N(C)C(=O)[C@@H](CCCCC)OC(=O)[C@H](C)N(C)C1=O [Compound 28] | two insects were brought to a dead or anguished state | 
27 | CCCCCC1OC(=O)C(C)N(C)C(=O)C(CCCCC)OC(=O)C(CCCC)N(C)C(=O)C(CCCCC)OC(=O)C(C)N(C)C(=O)C(CCCCC)OC(=O)C(C)N(C)C1=O (centres unmarked) [Compound 15] | two insects were brought to a dead or anguished state | 
